Measured values reported in patent US5286733A, “Substituted 3-piperidinealkanoates and alkanones and compositions and method of use thereof” (Sterling Winthrop Inc., priority 1992, dated 1994).

Biological target: T1, sigma receptors (Cavia porcellus, UniProt Q60492)
T1 construct: Brain tissue was prepared from male Hartley guinea pigs; tissue Hazelton Labs, Denver, Pa; (animals); host or cells: guinea pig brain membranes
Assay: sigma receptor binding activity, [3H]-(+)-pentazocine binding to guinea pig brain membranes
Design: species or system male Hartley guinea pigs
Settings: at 10 μM; guinea pig brain membranes; approximately 0.5 nM [3H]-(+)-pentazocine; 37° C., 150 min; read-out: Percent Inhibition (of [3H]-(+)-pentazocine binding)
Procedure: Brain tissue was prepared from male Hartley guinea pigs (Hazelton Labs, Denver, Pa.) which were anesthetized with CO2 and sacrificed by decapitation. All animal care and use procedures were in accord with the "Guide for the Care and Use of Laboratory Animals" (NIH Publ. No 86-23, 1985). Homogenization was performed in 10 volumes (wt/vol) of 0.32M sucrose with a Brinkmann Polytron at setting 5, 30 sec. The homogenate was centrifuged at 900 x g for 10 min at 4° C., and the supernatant was collected and centrifuged at 22,000 x g for 20 min at 4° C. The pellet was resuspended in 10 volumes of Tris-HCl buffer (50 mM, pH 7.4), incubated at 37° C. for 30 min, and centrifuged at 22,000 x g for 20 min at 4° C. Following this, the pellet was resuspended in Tris buffer and frozen in 5-10 mL aliquots corresponding to a tissue concentration of 100 mg/mL, at -70° C. Binding characteristics of the membranes were stable for at least one month when stored at -70° C.
On the day of the assay, membrane aliquots were thawed, resuspended in fresh Tris-HCl buffer and stored on ice until use. Each assay tube contained 100 μL of [3H]-(+)-pentazocine at a final concentration of approximately 0.5 nM, 100 μL of various concentrations of the compounds of interest, 500 μL of the tissue suspension and 300 μL of buffer to a final assay volume of 1 mL and a final tissue concentration of approximately 8 mg/tube, corresponding to approximately 0.15 mg protein/tube. Nonspecific binding was defined by addition of a final concentration of 1 μM haloperidol to blank tubes. All tubes were incubated at 37° C. for 150 min before termination of the reaction by rapid filtration over Whatman GF/B glass fiber filters that were presoaked in a solution of 0.5% polyethyleneimine for at least 1 hr prior to use. Filters were washed with three 4 ml volumes of cold Tris-HCl buffer.
Following addition of scintillation cocktail, samples were allowed to equilibrate for at least 4 hr. The amount of bound radioactivity was determined by liquid scintillation spectrometry using a Beckman LS 5000 TA liquid scintillation counter with an efficiency for tritium of approximately 60%. The results are reported as a percent (%) inhibition of binding at 10 μM.
Scatchard parameters and inhibition constants (Ki values) for the binding of test compounds were also calculated using the EBDA/LIGAND program (McPherson, J. Pharmacol. Meth. 1985, 14, 213-228), purchased from Elsevier/Biosoft, Inc. The Ki values are expressed as the mean ±SEM of at least three separate determinations performed in triplicate.

T1 sequence (Q60492 whole entry): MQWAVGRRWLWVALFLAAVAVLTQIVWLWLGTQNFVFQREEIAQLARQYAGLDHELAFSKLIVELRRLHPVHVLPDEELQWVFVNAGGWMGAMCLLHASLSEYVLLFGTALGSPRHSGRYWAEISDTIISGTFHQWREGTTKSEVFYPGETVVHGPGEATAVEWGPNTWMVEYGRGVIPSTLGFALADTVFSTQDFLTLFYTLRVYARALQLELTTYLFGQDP

inhibition at 10 µM | SMILES
70% | CCOC(=O)CC[C@]1(C)[C@H](C)CCN(C)[C@H]1C (relative stereo) [Example 1, ethyl 3-(1,2,3,4-tetramethyl-3-piperidine)propanoate]
96% | C[C@@H]1CCN[C@@H](C)[C@]1(C)CCC(=O)CCC1CCCC1 (relative stereo) [Example 3b, 1-cyclopentyl-5-(2,3,4-trimethyl-3-piperidinyl)-3-pentanone]
98% | C[C@@H]1CCN(CC2(O)CC2)[C@@H](C)[C@]1(C)CCC(=O)CCC1CCCC1 (relative stereo) [Example 3c]
99% | CCOC(=O)CC[C@]1(C)[C@H](C)CCN(Cc2ccccc2)[C@H]1C (relative stereo) [Example 6, ethyl 3-[2,3,4-trimethyl-1-(phenylmethyl)-3-piperidine)propanoate]
84% | CC1N(CC2(O)CC2)CCC2CCCCC21CCC(=O)CCC1CCCC1 (stereo not drawn) [Example 10]

Same assay, conditions: mean ±SEM of at least three separate determinations performed in triplicate; [3H]-(+)-pentazocine; EBDA/LIGAND

Ki | SMILES
39 ± 5 nM | CCOC(=O)CC[C@]1(C)[C@H](C)CCN(Cc2ccccc2)[C@H]1C (relative stereo) [Example 6, ethyl 3-[2,3,4-trimethyl-1-(phenylmethyl)-3-piperidine)propanoate]

Same assay, conditions: read-out: Percent Inhibition (of [3H]-(+)-pentazocine binding)

SMILES | inhibition at 10 µM
C[C@@H]1CCN(C)[C@@H](C)[C@]1(C)CCC(=O)CCC1CCCC1 (relative stereo) [Example 2, 1-cyclopentyl-5-(1,2,3,4-tetramethyl-3-piperidinyl)-3-pentanone] | 100%
C[C@@H]1CCN(C)[C@@H](C)[C@]1(C)CCC(=O)c1ccoc1 (relative stereo) [Example 4, 1-(3-furanyl)-3-(1.2.3.4-tetramethyl-3-piperidinyl)-1-propanone] | 78%
C[C@@H]1CCN(C)[C@@H](C)[C@]1(C)CCC(=O)c1ccco1 (relative stereo) [Example 5, 1-(2-furanyl)-3-(1,2,3,4-tetramethyl-3-piperidinyl)-1-propanone] | 57%
